According to publication PMC5074465, “Duloxetine Inhibits Microglial P2X4 Receptor Function and Alleviates Neuropathic Pain after Peripheral Nerve Injury” (PLoS ONE, 2016):

Columns and labels:
[1] = target: T1, rat P2X4R (rP2X4R) (Rattus norvegicus, UniProt P51577); assay: Fura-2 Ca2+ assay (FDSS […]EX), inhibition of […] ATP response, […] duloxetine; type: cell-based
T1 construct: gene P2rx4; rP2X4R stably expressed in 1321N1 cells
T1 sequence (P51577 1-388): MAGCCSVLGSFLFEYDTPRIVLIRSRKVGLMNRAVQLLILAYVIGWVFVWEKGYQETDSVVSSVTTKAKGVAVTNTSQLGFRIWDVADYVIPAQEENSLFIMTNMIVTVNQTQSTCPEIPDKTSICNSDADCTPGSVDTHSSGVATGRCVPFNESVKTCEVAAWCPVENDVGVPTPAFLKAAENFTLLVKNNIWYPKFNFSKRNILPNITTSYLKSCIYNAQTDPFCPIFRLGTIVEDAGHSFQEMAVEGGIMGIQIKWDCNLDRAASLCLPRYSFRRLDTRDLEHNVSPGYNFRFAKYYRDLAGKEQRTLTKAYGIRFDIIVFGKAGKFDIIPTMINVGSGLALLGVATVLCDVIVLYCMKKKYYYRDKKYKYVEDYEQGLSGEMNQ

[2] = target: T2, human P2X4R (P2X4 receptor) (Homo sapiens, UniProt Q99571); assay: cell-based
T2 construct: gene P2RX4
T2 sequence (Q99571 1-388): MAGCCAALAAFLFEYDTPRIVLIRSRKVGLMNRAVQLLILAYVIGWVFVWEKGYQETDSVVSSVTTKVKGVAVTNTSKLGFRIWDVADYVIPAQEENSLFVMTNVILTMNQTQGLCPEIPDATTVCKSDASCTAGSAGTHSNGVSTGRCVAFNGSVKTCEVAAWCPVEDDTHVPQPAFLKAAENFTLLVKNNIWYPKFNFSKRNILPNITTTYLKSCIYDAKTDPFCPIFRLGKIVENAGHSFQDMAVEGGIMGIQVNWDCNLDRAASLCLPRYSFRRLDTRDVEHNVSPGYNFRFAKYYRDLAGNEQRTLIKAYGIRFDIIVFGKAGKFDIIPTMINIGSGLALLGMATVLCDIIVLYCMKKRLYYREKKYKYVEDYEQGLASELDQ

`CNCC[C@H](Oc1cccc2ccccc12)c1cccs1` [duloxetine] was tested, and the “Fura-2 Ca2+ assay (FDSS 7000EX), inhibition of 10 μM ATP response, 3-30 μM dulox” value [1] was “The inhibitory effect of duloxetine was concentration dependent in rP2X4R-1321N1 cells (Fig 1A)” and the IC50 [2] was 1.59 µM.
